What was measured:
Der p 1 [1] = target: T1, Der p 1 (Dermatophagoides pteronyssinus, UniProt P08176); test: biochemical; assay type: biochemical; details: mean ± SE
T1 sequence (P08176 99-320): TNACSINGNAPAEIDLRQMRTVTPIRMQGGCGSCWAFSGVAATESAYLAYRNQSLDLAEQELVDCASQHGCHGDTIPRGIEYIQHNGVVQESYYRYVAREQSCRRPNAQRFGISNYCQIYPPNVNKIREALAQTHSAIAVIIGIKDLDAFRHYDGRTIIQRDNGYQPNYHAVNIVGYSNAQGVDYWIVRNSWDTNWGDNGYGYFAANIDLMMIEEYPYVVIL
Procedure: Automated screening of inhibitory activity toward group 1 HDM peptidase allergens was performed as described elsewhere[25],[43] with the minor modification that Der p 1 or Der f 1 were incubated with inhibitors for 20 min prior to initiation of reactions by addition of substrate. In initial screening, the activity of each compound was measured using a series of 10 doubling dilutions from a starting concentration of 50 μM. […] Assays were performed in triplicate for calculation of mean ± SE IC50 values.

[2] = tested on: rat alveolar macrophage line NR8383; test: Stability in the presence of airway macrophages; assay type: in vitro ADME
Procedure: Stability in the presence of epithelial cells and ma crophages.
NR8383 Airway macroph a ges
were grown in suspension culture in F12K, collected b y centrifugation, washed in serum-free
exposed to test compounds in serum-free F12K at a standard concentration of 100 nM in a 5%
CO2 environment at 37 °C. Samples were removed at selected time points for quantitative
Assa ys w ere p er formed in replicate and t he data ex pressed as mean ± SE.

human liver Cat B = human liver Cat B (Homo sapiens, UniProt P07858); test: Cathepsin B inhibition assay; details: read-out: Cat B IC50; mean ± SE
Procedure: Inhibition of Cat B was measured as described with modifications.[25] […] Progress curves were followed at 30 °C by detection of fluorescence at 320/420 nm (excitation/emission).
(§3) In all cases, for reactions involving inhibitors, the amount of reaction buffer was adjusted to 60 μL, the inhibitor added as a 10 μL aliquot, and incubated for 20 min with the enzyme prior to reaction start.

Der p 1 [3] = target: T1, Der p 1; set-up: method as in PMID 9871695; details: irreversible acyloxymethyl ketone inhibitors, Figure 1; cited from earlier work
[4] = Measurement of LogD7.4 (n-octanol/PBS shake); assay type: physicochemical; details: for logD at 1.5 h: single determination, n-octanol/PBS pH 7.4, read-out: Log D7.4
Procedure: Appendix 4. Measurement of LogD7.4
Test compounds (~1 mg) were weighed into 2 mL HPLC vials. n- Octanol (0.7 mL), pre-saturated with 10 mM phosphate buffered saline pH7.4 (PBS), was added to each vial followed b y PBS (0. 7 mL), which had been pre-saturat ed with n-octanol. The mixtures were shaken for 90 min and then centrifuged for 10 min at 4,000 rpm. The upper organic l ayer (0.2 m L) and the aqueous la yer (0.5 mL) were removed from each vial and anal yz e d b y LC -MS. Mass spect ral anal ysis was used to confirm peak identity whilst the concentration of compound was assessed by a diode arra y det ecto r. The logD for each compound was calculated b y takin g th e lo g of its concentration ratio between the oct anol and aqueous la ye r s.Given the robustness of the assa y and the fact that the info rmation was us ed onl y for gen eral guid ance, thes e measu rements were based on singlicate det erminations.

[5] = Pharmacokinetics after oral and iv dosing to rats; assay type: in vivo, Sprague-Dawley rat; details: for Cmax / bioavailability: male, Sprague-Dawley, plasma; for Cmax / bioavailability / free conc Cmax: rat; for Cmax / free conc Cmax: 5 mg/kg po; for bioavailability: po, 5 mg/kg, read-out: F % (bioavailability)
Procedure: (§1) Appendix 2. Pharmaco kinetics an d P l a s ma Protein Binding […]
Pharma cokinetics. In vivo PK characteristics were determined using non- fasted Sprague-Dawle y rats (mal e, 200-300 g, 10- 16 weeks of age) with groups of three animals per route per compound. Soluble formulations were developed and verified b y HP LC/UV s o that compounds were dosed discretel y b y the iv (1 mg/kg, 1 mL/kg) and po (5 mg/kg, 5 mL/kg) routes. Blood samples were obtained at various times after dosing and plasma prepared for LC -MS-MS quantification of the test substance after inclusion of an intern al standard . PK p aramet ers were calculated usin g a non -compartmental model in WinNonlin v5.2.
(§2) Plasma Protein Binding Assay. PPB was determined with a Rapid Equilibrium Dialysis device using 8 kDa molecular weight cut-off inserts (Fisher Scientific UK Ltd, Leicest ershire, UK) as described b y the manufacturer. R at (Sprague Dawl e y strain) plasma EDTA K2 (mixed gender, pooled, SeraLab, West Sussex, UK) was thawed and centrifuged at 13,000 x g for 10 min to remove precipitates before being spiked with compounds (5 µM). The concentrations of compounds in the plasma and buffer chambers were determined b y LC -MS-MS (AB Sciex 3200 QTrap) anal ysis after 4 h incubation at 37 °C. Binding was calculated from the concentration percentage in both chambers as shown below. Assays were p erfo rmed in replicate and the data

[6] = Plasma protein binding, Rapid Equilibrium Dialysis; assay type: in vitro ADME; details: both sexes, Sprague Dawley, plasma (EDTA K2, pooled), rat plasma, 4 h at 37 °C, read-out: PPB (converted)
Procedure: as §1, §2

Der f 1 = Der f 1 (Dermatophagoides farinae, UniProt P16311); test: Group 1 HDM peptidase allergen inhibition assay (Der f 1); assay type: biochemical, D. farinae; details: in vitro enzymatic assay, mean ± SE
Der f 1, sequence (P16311 99-321): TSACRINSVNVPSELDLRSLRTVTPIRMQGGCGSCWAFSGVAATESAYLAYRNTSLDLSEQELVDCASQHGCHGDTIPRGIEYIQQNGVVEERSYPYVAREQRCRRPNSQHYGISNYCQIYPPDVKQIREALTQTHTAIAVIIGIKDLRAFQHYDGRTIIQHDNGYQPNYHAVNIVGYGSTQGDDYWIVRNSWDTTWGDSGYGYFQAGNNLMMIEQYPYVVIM
Procedure: Automated screening of inhibitory activity toward group 1 HDM peptidase allergens was performed as described elsewhere[25],[43] with the minor modification that Der p 1 or Der f 1 were incubated with inhibitors for 20 min prior to initiation of reactions by addition of substrate. In initial screening, the activity of each compound was measured using a series of 10 doubling dilutions from a starting concentration of 50 μM. Compounds showing optimizable activity were cherry-picked for multiple (up to six) rounds of rescreening to confirm activity and stability and to determine IC50 values over a range of concentrations that were compound-directed by initial screening. Assays were performed in triplicate for calculation of mean ± SE IC50 values.

[7] = tested on: sensitized BN rats challenged with mixed HDM allergens; test: HDM allergen challenge of sensitized BN rats, BAL cells; assay type: in vivo, Brown Norway rat; details: single dose 12 μg/kg (18 nmol/kg) 2 h prior to challenge, BAL 48 h
Text: For other studies, rats were actively sensitized to a natural mixture of HDM allergens prepared from laboratory cultures of Dermatophagoides pteronyssinus. Animals were sensitized by the ip route in the absence of additional adjuvant on day 0, 7, and 14. […] Negative control groups comprised naïve, unsensitized animals or those sham-sensitized with vehicle solution.
Test ADIs were delivered as intratracheal aerosols of 25–30 μm mass median diameter from a Penn-Century IA-1B microsprayer at various times prior to allergen challenge. Allergen or vehicle challenge was similarly delivered by Penn-Century microsprayer on day 21 of the protocol. These procedures were conducted under anesthesia with isoflurane in oxygen. Test ADIs were generally dosed in a constant 50:1 molar ratio to the Der p 1 content of the allergen challenge mixture.
Animals were killed by sodium pentobarbital overdose 48 h after allergen challenge because this is the optimal sampling point to assess the recruitment of eosinophils (our unpublished observations). The airways were lavaged with 3 × 4 mL aliquots of Hanks’ Balanced Salt Solution and the recovered cells pooled and counted automatically (ADVIA; Bayer Healthcare, Diagnostics Division, UK). […] Cells were counted by an independent observer using light microscopy under oil immersion (×1000). […]

[8] = tested on: nonsensitized rats challenged with a natural mixture of HDM allergens; details: for efficacy, inhibition of eosinophil recruitment: rat, in vivo; for duration of protection: trend of inhibition of eosinophil recruitment with increasing pre-treatment interval: i.t. aerosol typically 60-360 min prior to allergen challenge, unsensitised BN rats
recombinant human Cat S = recombinant human Cat S (Homo sapiens, UniProt P25774); test: Cathepsin S inhibition assay; assay type: biochemical; details: in vitro enzymatic assay, mean ± SE; read-out: Cat S
recombinant human Cat S, sequence (P25774 115-331): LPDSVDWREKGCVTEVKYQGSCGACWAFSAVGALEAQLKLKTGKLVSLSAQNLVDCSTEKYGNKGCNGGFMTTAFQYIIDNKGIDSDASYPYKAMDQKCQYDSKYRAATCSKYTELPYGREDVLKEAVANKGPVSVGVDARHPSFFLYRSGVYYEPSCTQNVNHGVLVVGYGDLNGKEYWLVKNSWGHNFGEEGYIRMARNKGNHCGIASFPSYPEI
Procedure: as §3

[9] = 5 mg/kg po compared with 1 mg/kg iv, nonfasted Sprague–Dawley rats, mean ± SE, n = 3

Row | Structure (SMILES) | IC50 (Der p 1 [1]) [nM] | IC50 (human liver Cat B) [nM] | logD at 1.5 h [4] | Cmax ([5]; mean ± SE, n = 3) [nM] | bioavailability [5, 9] [%] | free conc Cmax [5] [nM] | fraction unbound at 4 h, 5 µM [6] | further results
1 | CC(C)C(NC(=O)[C@H](C)NC(=O)[C@H](Cc1ccccc1)NC(=O)c1ccccc1)C(=O)C(=O)NC1CCCCC1 (mixture of isomers) [Compound 19] | 18 ± 2 | 52 ± 5 |  |  |  |  |  | remaining unchanged (processing by airway macrophages) ([2]; after 2 h): ~70%
2 | CCCC[C@H](NC(=O)[C@H](C)NC(=O)[C@@H](NC(=O)c1ccccc1)C(C)C)C(=O)COC(=O)c1ccccc1 [Compound 1] |  |  |  |  |  |  |  | Kobs/[I] (Der p 1 [3]): 210000 M⁻¹ s⁻¹
3 | CCCC[C@H](NC(=O)[C@H](C)NC(=O)[C@@H](NC(=O)c1ccccc1)C(C)C)C(=O)COC(=O)c1c(C(F)(F)F)cccc1C(F)(F)F [Compound 2] |  |  |  |  |  |  |  | Kobs/[I] (Der p 1 [3]): 1.6e+06 M⁻¹ s⁻¹
4 | CCCC[C@H](NC(=O)[C@H](C)NC(=O)[C@H](Cc1ccccc1)NC(=O)c1ccccc1)C(=O)C(=O)NC1CCCCC1 [Compound 5, N-{(S)-1-[(S)-1-((S)-1-Cyclohexylaminooxalyl-pentylcarbamoyl)-ethylcarbamoyl]-2-phenyl-ethyl}-benzamide] |  |  |  |  |  |  |  | degraded by airway macrophages ([2]; over a 2 h period): > 50%
5 | CC(C)[C@H](NC(=O)[C@H](C)NC(=O)[C@@H](NC(=O)c1ccccc1)C(C)(C)C)C(=O)C(=O)NC1CCCCC1 [Compound 22, N-{(S)-1-[(S)-1-((S)-1-Cyclohexylaminooxalyl-2-methyl-propylcarbamoyl)-ethylcarbamoyl]-2,2-dimethyl-propyl}-benzamide] | 14 ± 3 | 378 ± 27 | 3.9 |  |  |  |  | degradation by airway macrophages ([2]; over 2 h): no significant degradation
6 | CC(C)[C@H](NC(=O)[C@H](C)NC(=O)[C@@H](N1Cc2ccccc2C1=O)C(C)(C)C)C(=O)C(=O)NCc1ccccc1 [Compound 28, (S)-3-{(S)-2-[(S)-3,3-Dimethyl-2-(1-oxo-1,3-dihydro-isoindol-2-yl)-butyrylamino]-propionylamino}-4-methyl-2-oxo-pentanoic Acid Benzylamide] | 7 ± 1 | 429 ± 65 | 3.6 | 663 ± 26 | 20 ± 1 | 11 ± 0 | 0.02 | 
7 | CC(C)[C@H](NC(=O)[C@H](C)NC(=O)[C@@H](NC(=O)C1CC[N+](C)(C)CC1)C(C)(C)C)C(=O)C(=O)NCc1ccccc1.O=C[O-] [Compound 32, 4-{(S)-1-[(S)-1-((S)-1-Benzylaminooxalyl-2-methyl-propylcarbamoyl)-ethylcarbamoyl]-2,2-dimethyl-propylcarbamoyl}-1,1-dimethyl-piperidinium Formate] |  | 274 ± 44 | -0.9 | 20 ± 13 | 1 | 8 ± 0 | 0.388 | IC50 (Der f 1): 4 nM; F % (bioavailability) [5, 9]: 0.6 ± 0.2%; eosinophil recruitment [7]: marked inhibition; increase in total nucleated cells recoverable by BAL [7]: significantly blunted; efficacy, inhibition of eosinophil recruitment [8]: Good efficacy
8 | CC(C)[C@H](NC(=O)[C@H](C)NC(=O)[C@@H](NC(=O)c1ccccc1)C(C)(C)C)C(=O)C(=O)NC1CC1 [Compound 35] | 17 ± 1 | 417 ± 25 | 2.4 | 1140 ± 268 | 90 ± 11 | 176 ± 0 | 0.155 | logD ([4]; pH 7.4, versus compound 22, read-out: reduction of measured log D on replacing cyclohexyl (22) by cyclopropyl): ~1.5; duration of protection: trend of inhibition of eosinophil recruitment with increasing pre-treatment interval [8]: rise to well-maintained
9 | CC(C)[C@H](NC(=O)[C@H](C)NC(=O)[C@H](Cc1ccccc1)NC(=O)c1ccccc1)C(=O)C(=O)NCC(=O)N1CC[N+](C)(C)CC1.O=C[O-] [Compound 52, 4-(2-{(S)-3-[(S)-2-((S)-2-Benzoylamino-3-phenyl-propionylamino)-propionylamino]-4-methyl-2-oxo-pentanoylamino}-acetyl)-1,1-dimethyl-piperazin-1-ium Formate] |  | > 2500 | -0.6 | 7 ± 2 | 0 | 3 ± 0 | 0.365 | IC50 (Der f 1): 11 ± 1 nM; IC50 (recombinant human Cat S): 114 ± 7 nM; efficacy, inhibition of eosinophil recruitment [8]: Good efficacy
10 | CC(C)[C@H](NC(=O)[C@H](C)NC(=O)[C@H](Cc1ccccc1)NC(=O)c1cccc2ccccc12)C(=O)C(=O)NCC(=O)N1CCN(C)CC1 [Compound 53, Naphthalene-1-carboxylic Acid [(S)-1-((S)-1-{(S)-2-Methyl-1-[2-(4-methyl-piperazin-1-yl)-2-oxo-ethylaminooxalyl]-propylcarbamoyl}-ethylcarbamoyl)-2-phenyl-ethyl]-amide] | 20 ± 3 | 540 ± 28 | 2 |  |  |  |  | duration of protection: trend of inhibition of eosinophil recruitment with increasing pre-treatment interval [8]: waned
